# Experimental data taken from US12593767B2, “Protoplast isolation and regeneration of plants” (The Regents of the University of California, priority 2019, dated 2026).
# “And” between values parts separate entries of the source, which are not always exact repeats. Identical values can stand only once. Like-named read-outs stand apart in the source and are kept apart here.
# How the values were obtained:
# TS protoplast = assay: Polyamines: callus colony formation from encapsulated protoplasts in 1103P feeder suspension; assay type: cell-based, grape; conditions: for # colonies/alginate bead: 14 days after encapsulation, beads 1-5; for # colonies/alginate bead, Average / # colonies, Total: 14 days; for # colonies, Total: total of 5 beads
# Experimental: We re-suspended embedded protoplasts in conditioned osmotically adjusted grape cell suspension cultures in 125 ml shake flasks and incubated them at 100 rpm and 25 degrees centigrade. In this system, we utilize a grape nurse suspension culture that is of a different genotype than the genotype used to generate the protoplasts. For example, we used 1103P conditioned cell suspension cultures for embedded Thompson Seedless protoplasts.
# Recently, we have replaced the use of the shake flasks with 60×15 mm petri plates. This format allows for easy observation of the protoplasts using an inverted microscope and aids sampling of beads to evaluate the fate of the embedded protoplasts. Beads are cultured in 3.5 ml of Lloyd and McCown minimal organics medium supplemented with 30 g/l sucrose, 10 mg/l Picloram and 2.0 mg/l TDZ, 0.4 M mannitol, 1,191 mg/l HEPES, 50 mM CaCl2, 5× antioxidant solution with 1.5 ml of conditioned 1103P cell suspension culture.
# We are testing the ability of these polyamines to increase the plating efficiency of encapsulated protoplast as well as increase the rate of cell division. Initially we tested 1.0 mM putrescine in combination with 0.0 or 0.1 mM spermidine since we have previously found these levels to be beneficial in other plant species.
# [1] = test system: protoplast-derived somatic embryos; assay: Maintenance of embryo-containing beads on sorbitol-containing agar medium; assay type: cell-based, grape; conditions: beads maintained on agar-solidified medium containing sorbitol (50 g/l)
# Experimental: Using forceps, we manually transferred individual beads to a 100×20 mm petri dish containing 40 ml of Lloyd and McCown minimal organics medium supplemented with 20 g/l sucrose, 1 g/l casein, 222 mg/l CaCl2, without hormones or activated charcoal. We repeated this transfer/washing process two more times to eliminate any of the feeder suspension cells. We then transferred beads onto agar-solidified 100×20 mm feeder plates containing 40 ml of Lloyd and McCown minimal organics medium supplemented with 20 g/l sucrose, 50 g/l sorbitol, 1 g/l casein, 1 mM MES, 0.5 mg/l BAP and 0.1 mg/l NAA onto which 1.0 ml of a […] grape suspension culture is plated. The grape suspension culture medium consisted of WPM medium supplemented with 20 g/l sucrose 10 mg/l picloram and 2.0 […] mannitol, 222 mg/l CaCl2, 1 g/l casein, 1,191 mg/l HEPES and 2 g/l activated charcoal, pH 5.7. We placed an 85 mm Whatman filter paper over the plated suspension and a 70 mm Whatman filter paper on top of the 85 mm filter. We placed beads on top of the 70 mm filter paper. We add 1 ml Lloyd and McCown minimal organics medium supplemented with 30 g/l sucrose, 1 g/l casein, 1 mM MES, 10 mg/l picloram and 2.0 mg/l TDZ to each plate to prevent desiccation. We incubated the cultures at 26 degrees centigrade in the dark. After approximately 3-4 weeks, mini-calli developed into somatic embryos within the beads (FIG. 15). […]
# Merlot protoplasts = conditions: for Ave colonies per bead / Number of colonies, Total / Number of colonies per bead: + 1.0 mM PUT, 0.1 mM SPD; for Number of colonies, Total: total of 5 beads; for Number of colonies per bead: beads 1-5
# Experimental: I have developed and tested an antioxidant solution consisting of 100 mg/l ascorbic acid, 150 mg/l citric acid, 30 mg/l reduced glutathione and 100 mg/l L-cysteine (PTF AQ). I tested the effect of this antioxidant addendum on protoplast viability and division on Thompson seedless and Merlot protoplast culture. Protoplast were isolated and encapsulated in 1.6% calcium alginate beads. Calcium alginate beads from the same protoplast preparation were randomly transferred to shake flasks containing conditioned 0.4 M Pic/TDZ 1103P feeder cell suspensions with or without the addition of 1× or 5× of the antioxidant solutions. After 14 days, the osmotic strength of the feeder suspension was reduced from 0.4 M to 0.2 M mannitol. At day 35, I randomly harvested five beads per treatment and counted the number of mini calli per bead.
# [2] = SPD 0.0 mM, CAD 0.1 mM, + 1.0 mM putrescine, 0.1 mM spermidine, Experiment 19136
# [3] = SPD 0.0 mM, CAD 1.0 mM, + 1.0 mM putrescine, 0.1 mM spermidine, Experiment 19136
# [4] = SPD 0.1 mM, CAD 0.0 mM, + 1.0 mM putrescine, 0.1 mM spermidine, Experiment 19136
# [5] = SPD 0.1 mM, SPM 0.0 mM, + 1 mM putrescine, Experiment 19129
# [6] = SPD 1.0 mM, CAD 0.0 mM, + 1.0 mM putrescine, 0.1 mM spermidine, Experiment 19136
# [7] = SPD 1.0 mM, SPM 0.0 mM, + 1 mM putrescine, Experiment 19129
# [8] = SPD 0.0 mM, SPM 0.1 mM, + 1 mM putrescine, Experiment 19129
# [9] = SPD 0.0 mM, SPM 1.0 mM, + 1 mM putrescine, Experiment 19129
smiles,measurement,setting,value
NCCCCCN [cadaverine],# colonies/alginate bead,"TS protoplast; SPD 0.0 mM, CAD 0.1 mM, + 1.0 mM putrescine, 0.1 mM spermidine, Experiment 19136, listed as CAD",100 colonies/alginate bead and 115 colonies/alginate bead and 92 colonies/alginate bead and 104 colonies/alginate bead and 95 colonies/alginate bead
same,"# colonies/alginate bead, Average",TS protoplast; [2],101.2 colonies/alginate bead
same,"# colonies, Total",TS protoplast; [2],506
same,# colonies/alginate bead,"TS protoplast; SPD 0.0 mM, CAD 1.0 mM, + 1.0 mM putrescine, 0.1 mM spermidine, Experiment 19136, listed as CAD",104 colonies/alginate bead and 82 colonies/alginate bead and 87 colonies/alginate bead and 92 colonies/alginate bead and 73 colonies/alginate bead
same,"# colonies/alginate bead, Average",TS protoplast; [3],87.6 colonies/alginate bead
same,"# colonies, Total",TS protoplast; [3],438
same,cell division or cells growth from grape protoplasts,"TS protoplast; cadaverine 0.1 or 1.0 mM, + 1.0 mM putrescine, 0.1 mM spermidine, 0.0-1.0 mM spermine",does not seem to enhance cell division or cells growth
NCCCCN [putrescine],callus colony formation,TS protoplast; 1.0 mM putrescine,stimulated callus colony formation
OC[C@@H](O)[C@@H](O)[C@H](O)[C@@H](O)CO [sorbitol],germination of embryos in beads,[1],will not germinate further and become dormant
NCCCCNCCCN [spermidine],"callus colony formation, addition to 1.0 mM putrescine",TS protoplast; 0.1 mM spermidine,did not enhance the response
same,# colonies/alginate bead,"TS protoplast; SPD 0.1 mM, CAD 0.0 mM, + 1.0 mM putrescine, 0.1 mM spermidine, Experiment 19136, listed as SPD",68 colonies/alginate bead and 79 colonies/alginate bead and 64 colonies/alginate bead and 65 colonies/alginate bead and 86 colonies/alginate bead
same,"# colonies/alginate bead, Average",TS protoplast; [4],72.4 colonies/alginate bead
same,"# colonies, Total",TS protoplast; [4],362
same,# colonies/alginate bead,"TS protoplast; SPD 0.1 mM, SPM 0.0 mM, + 1 mM putrescine, Experiment 19129, listed as SPD",91 colonies/alginate bead and 93 colonies/alginate bead and 120 colonies/alginate bead and 110 colonies/alginate bead
same,"# colonies/alginate bead, Average",TS protoplast; [5],101.4 colonies/alginate bead
same,"# colonies, Total",TS protoplast; [5],507
same,# colonies/alginate bead,"TS protoplast; SPD 1.0 mM, CAD 0.0 mM, + 1.0 mM putrescine, 0.1 mM spermidine, Experiment 19136, listed as SPD",133 colonies/alginate bead and 121 colonies/alginate bead and 115 colonies/alginate bead and 98 colonies/alginate bead
same,"# colonies/alginate bead, Average",TS protoplast; [6],120 colonies/alginate bead
same,"# colonies, Total",TS protoplast; [6],600
same,# colonies/alginate bead,"TS protoplast; SPD 1.0 mM, SPM 0.0 mM, + 1 mM putrescine, Experiment 19129, listed as SPD",81 colonies/alginate bead and 97 colonies/alginate bead and 79 colonies/alginate bead and 125 colonies/alginate bead and 89 colonies/alginate bead
same,"# colonies/alginate bead, Average",TS protoplast; [7],94.2 colonies/alginate bead
same,"# colonies, Total",TS protoplast; [7],471
NCCCNCCCCNCCCN [spermine],enhancement in growth,"TS protoplast; 0.1 mM spermine, + 1.0 mM putrescine",did not see any enhancement in growth
same,callus colony growth,"TS protoplast; 1.0 mM spermine, 21 days of culture, regardless of the level of CAD",significant enhancement in callus colony growth
same,number of protoplasts that divided and speed of protoplast derived callus formation,"TS protoplast; 1.0 mM spermine, + 1.0 mM putrescine, irrespective of the spermidine concentration",enhanced the number of protoplasts that divided and the speed of protoplast derived callus formation
same,# colonies/alginate bead,"TS protoplast; SPD 0.0 mM, SPM 0.1 mM, + 1 mM putrescine, Experiment 19129, listed as SPM",96 colonies/alginate bead and 81 colonies/alginate bead and 79 colonies/alginate bead and 59 colonies/alginate bead and 84 colonies/alginate bead
same,"# colonies/alginate bead, Average",TS protoplast; [8],79.8 colonies/alginate bead
same,"# colonies, Total",TS protoplast; [8],399
same,"# colonies/alginate bead, Average",TS protoplast; [9],205.8 colonies/alginate bead
same,"# colonies, Total",TS protoplast; [9],1029
same,number and speed of mini-callus formation,TS protoplast; Thompson seedless derived protoplasts,significantly enhanced the number and speed of mini-callus formation
same,number and speed of mini-callus formation,Merlot protoplasts; Merlot derived protoplasts,significantly enhanced the number and speed of mini-callus formation
same,Ave colonies per bead,Merlot protoplasts; SPM 0.1 mM,0.2 colonies per bead
same,"Number of colonies, Total",Merlot protoplasts; SPM 0.1 mM,1
same,Ave colonies per bead,Merlot protoplasts; SPM 0.25 mM,0 colonies per bead
same,Number of colonies per bead,Merlot protoplasts; SPM 0.25 mM,0 colonies per bead
same,"Number of colonies, Total",Merlot protoplasts; SPM 0.25 mM,0
same,Ave colonies per bead,Merlot protoplasts; SPM 0.5 mM,0.2 colonies per bead
same,"Number of colonies, Total",Merlot protoplasts; SPM 0.5 mM,1
same,Ave colonies per bead,Merlot protoplasts; SPM 0.75 mM,0 colonies per bead
same,Number of colonies per bead,Merlot protoplasts; SPM 0.75 mM,0 colonies per bead
same,"Number of colonies, Total",Merlot protoplasts; SPM 0.75 mM,0
same,Ave colonies per bead,Merlot protoplasts; SPM 1.0 mM,6.2 colonies per bead
same,"Number of colonies, Total",Merlot protoplasts; SPM 1.0 mM,31
